This is an account of results in US20100333217A1, “SCREENING METHOD FOR THE COMPOSITION FOR PREVENTION OR TREATMENT OF OSTEOPOROSIS AND METABOLIC BONE DISEASE USING TALLYHO/JNGJ MOUSE” (KOREA RESERACH INSTITUTE OF CHEMICAL TECHNOLOGY, priority 2007, published 2010).

One test relates to IL-6. As to conditions: male TH mice, oral 5 mg/kg once a day for 4 weeks; ELISA (FIG. 20). As for the experimental part:
(§1) Thereafter, the bone mineral density and the bone mineral content of the femur and the thickness and the bone mineral density of the skull were measured as described in Examples 2 and 3.
Meanwhile, after separating the blood serum, IL-6 level was measured using ELISA Kit (ALPCO diagnostics, USA).
On the technique in general: ELISA stands for enzyme-linked immunosorbent assay.

In the next test the test system is OPG. As to conditions: cells separated from bone marrow of treated TH mice and cultured, RT-PCR; vs vehicle (FIG. 21). As for the experimental part:
(§2) After separating mRNA from the cell of FIG. 4, the expression levels of the genes related to the differentiation of osteoblast and osteoclast and cytokines were analyzed. The total RNA was obtained from the Extraction Kit (Intron, Seongnam, Korea) according to the manufacturer's protocol. The separated RNA was weighed by measuring the absorbance. The reverse transcription PCR (RT-PCR) was performed using primers listed in Table 1 under the following conditions to examine the expression level of each of the genes.
(§3) Reverse Transcription System (Promega, USA) was added with total RNA 1 μg, 10 mM dNTP 2 μl, 100 pmole Oligo dT 1 μl, 10×buffer 2 μl, 25 mM MgCl2 4 μl, RNase inhibitor 0.2 μl, AMV RTase 0.2 μl, and DEPC-treated water, and cultured at 42° C. for 60 minutes and at 72° C. for 10 minutes to prepare cDNA. Then, the reverse transcripted cDNA sample was amplified using primer pairs specific to respective target genes. The PCR was repeated 25-30 times after denaturation at 95° C. for 5 minutes. In specific, the PCR was performed under the condition of denaturation at 95° C. for 30 seconds, primer annealing at 55° C. (NPY1receptor), 56° C.
as §1

The next test relates to RANKL. As to conditions: cells separated from bone marrow of treated TH mice and cultured, RT-PCR; vs vehicle (FIG. 21). The protocol: as §2, §3, §1
Test [1] relates to male TH mice. As to conditions: oral 5 mg/kg once a day for 4 weeks, femur of 8-week-old mouse, micro-CT (FIG. 19). The protocol:
Thereafter, the bone mineral density and the bone mineral content of the femur and the thickness and the bone mineral density of the skull were measured as described in Examples 2 and 3. […] The TH mice and B6 mice were sacrificed with carbon dioxide. The femurs thereof were extracted and scanned 400 times with a thickness of […] using eXplore Locus micro-CT (GE Healthcare, USA) which is devised as a tomographic apparatus for small animals. The scanned images were accurately reformed using Microview (GE Healthcare, USA) to obtain final histomorphological images of the femurs.

For test [2], the system named is male TH mice. The experiment in a line: Micro-CT bone mineral density, bone mineral content and skull thickness in drug-treated male TH mice. The format is in vivo, mouse. The protocol: Control mice (C57BL/6) and TH mice were freely fed, and their bone mineral densities were measured every week from 4 week age to 20 week age after delectation. The mice were anesthetized with Avertin (2,2,2-tribromoethanol) to keep them alive while measuring their bone mineral densities. […] Thereafter, the resulting images were reformed using Microview (GE Healthcare, USA) to obtain the final bone mineral density (BMD) and the final bone mineral content (BMC) (see FIG. 2).
Control mice (C57BL/6) and TH mice were fed freely. […] Thereafter, the bone thicknesses and the bone mineral densities of the extracted skulls were measured as described in Example 2, using a tomographic apparatus (micro-CT) for animals.
8-week-old male TH mice were orally administered with parathyroid hormone (hPTH(1-34), Sigma, USA), which is started to be used as an osteoporosis medicine increasing the bone mineral content, with a concentration of 50 μg/kg, once a day for 4 weeks.

With `NCCCC(O)(P(=O)(O)O)P(=O)(O)O` [alendronate], in the test with IL-6, the “IL-6 level in blood serum” value is “low IL-6 level”. In addition, the OPG gene expression entry with OPG is on record as “increased”. For the same compound, the RANKL gene expression entry in the test with RANKL is listed as “decreased”. Further, in the test with male TH mice [1], the “histomorphological images of the femurs (recovering the bone loss)” value is “filled with trabeculars”. Moreover, the “bone mineral contents in the femurs” value with male TH mice [2] (4-week-old male TH mice, oral 5 mg/kg once a day for 4 weeks, vs 8-week-old TH mice treated with vehicle only (FIG. 16)) was “significantly recovered”. Moreover, in the test on male TH mice [2] (4-week-old male TH mice, oral 5 mg/kg once a day for 4 weeks, vs TH mice vehicle (FIG. 17)), the “thicknesses of the skulls” value is “significantly recovered”.

Regarding “parathyroid hormone (hPTH(1-34) (SVSEIQLMHNLGKHLNSMERVEWLRKKLQDVHNF; Parathyroid hormone; UniProt P01270 32-65, looked up, fragment) [parathyroid hormone hPTH(1-34), Sigma; osteoporosis medicine increasing the bone mineral content]”, the bone mineral densities result with male TH mice [2] (8-week-old male TH mice, 50 μg/kg once a day for 4 weeks, orally administered (so in the source), femur, vs 12-week-old TH mice treated with vehicle only (FIG. 22)) is listed as “significantly recovered”. In addition, in the test on male TH mice [2] (8-week-old male TH mice, 50 μg/kg once a day for 4 weeks, orally administered (so in the source), femur, vs 12-week-old TH mice treated with vehicle only (FIG. 23)), the bone mineral contents result is listed as “significantly recovered”.
